Source: patent US12540129B2, “KIF18A inhibitors” (AMGEN INC., priority 2019, dated 2026)

target: T1, Recombinant human KIF18A (1-467 His-tagged) protein (Homo sapiens, UniProt Q8NI77); assay: KIF18A Enzyme Assay: microtubule-stimulated ATPase activity (ADP-Glo); format: biochemical; settings: 30 nM KIF18A, 75 μM ATP
T1 construct: Recombinant human KIF18A (1-467 His-tagged) protein; His; made in house
Method in brief: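 Recombinant human KIF18A (1-467, His-tagged), baculovirus-expressed, assayed for microtubule-stimulated ATPase activity; ADP formed detected by ADP-Glo luminescence. Compounds tested as 22-point 2-fold serial dilutions in DMSO. IC50 from four-parameter logistic fit.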

T1 sequence (Q8NI77 1-467): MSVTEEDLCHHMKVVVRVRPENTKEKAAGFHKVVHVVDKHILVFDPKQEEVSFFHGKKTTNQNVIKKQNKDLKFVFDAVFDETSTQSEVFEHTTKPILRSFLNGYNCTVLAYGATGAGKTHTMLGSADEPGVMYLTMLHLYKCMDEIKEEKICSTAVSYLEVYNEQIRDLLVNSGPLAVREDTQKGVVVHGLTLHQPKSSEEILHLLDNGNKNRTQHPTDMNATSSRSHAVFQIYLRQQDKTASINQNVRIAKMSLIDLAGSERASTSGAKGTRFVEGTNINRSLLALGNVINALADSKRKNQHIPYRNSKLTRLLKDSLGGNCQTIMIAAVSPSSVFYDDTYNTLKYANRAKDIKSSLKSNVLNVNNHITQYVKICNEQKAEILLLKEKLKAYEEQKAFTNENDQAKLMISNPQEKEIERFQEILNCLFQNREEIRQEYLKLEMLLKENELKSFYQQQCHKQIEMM
T1 sequence (P02550 whole entry partner): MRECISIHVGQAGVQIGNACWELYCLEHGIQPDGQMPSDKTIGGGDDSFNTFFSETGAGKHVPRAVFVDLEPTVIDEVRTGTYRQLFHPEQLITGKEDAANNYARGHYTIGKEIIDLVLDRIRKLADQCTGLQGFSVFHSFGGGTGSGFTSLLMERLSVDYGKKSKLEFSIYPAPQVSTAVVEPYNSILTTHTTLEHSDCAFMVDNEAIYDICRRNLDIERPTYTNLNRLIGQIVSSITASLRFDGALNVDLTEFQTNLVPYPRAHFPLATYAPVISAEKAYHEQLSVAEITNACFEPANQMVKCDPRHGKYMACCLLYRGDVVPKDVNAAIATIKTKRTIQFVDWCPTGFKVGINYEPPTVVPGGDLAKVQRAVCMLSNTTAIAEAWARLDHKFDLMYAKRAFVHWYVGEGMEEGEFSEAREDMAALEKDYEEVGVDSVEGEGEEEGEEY
T1 sequence (P02554 whole entry partner): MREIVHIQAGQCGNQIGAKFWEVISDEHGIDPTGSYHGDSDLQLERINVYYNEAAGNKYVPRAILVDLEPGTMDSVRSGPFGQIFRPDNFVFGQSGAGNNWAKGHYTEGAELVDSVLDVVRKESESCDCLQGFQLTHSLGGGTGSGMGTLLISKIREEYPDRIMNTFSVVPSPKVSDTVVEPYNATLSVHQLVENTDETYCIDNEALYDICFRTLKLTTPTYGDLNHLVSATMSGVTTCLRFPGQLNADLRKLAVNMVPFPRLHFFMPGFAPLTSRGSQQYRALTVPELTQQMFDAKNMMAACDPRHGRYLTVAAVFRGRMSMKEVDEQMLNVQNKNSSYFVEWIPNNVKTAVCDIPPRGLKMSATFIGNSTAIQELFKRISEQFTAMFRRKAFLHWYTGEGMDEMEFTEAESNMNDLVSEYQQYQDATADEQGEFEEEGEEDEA

Structure (SMILES)	IC50 [nM]
CC(C)(C)NS(=O)(=O)c1cccc(NC(=O)c2ccc(NC3(C)COC3)nc2N2CCC3(CC2)CC3)c1 [Example 102-26, N-(3-(N-(tert-butyl)sulfamoyl)phenyl)-6-((3-methyloxetan-3-yl)amino)-2-(6-azaspiro[2.5]octan-6-yl)nicotinamide]	56
CC(C)(C)NS(=O)(=O)c1cccc(NC(=O)c2ccc(NC3(CO)COC3)nc2N2CCC3(CC2)CC3)c1 [Example 102-27, N-(3-(N-(tert-butyl)sulfamoyl)phenyl)-6-((3-(hydroxymethyl)oxetan-3-yl)amino)-2-(6-azaspiro[2.5]octan-6-yl)nicotinamide]	80
CC(C)(C)NS(=O)(=O)c1cccc(NC(=O)c2ccc(NC3(CO)CCC3)nc2N2CCC3(CC2)CC3)c1 [Example 102-28, N-(3-(N-(tert-butyl)sulfamoyl)phenyl)-6-((1-(hydroxymethyl)cyclobutyl)amino)-2-(6-azaspiro[2.5]octan-6-yl)nicotinamide]	71
CC(C)(C)NS(=O)(=O)c1cccc(NC(=O)c2ccc(N[C@H]3C[C@@H](O)C3)nc2N2CCC3(CC2)CC3)c1 [Example 102-29, N-(3-(N-(tert-butyl)sulfamoyl)phenyl)-6-(((1S,3S)-3-hydroxycyclobutyl)amino)-2-(6-azaspiro[2.5]octan-6-yl)nicotinamide]	98
CC(C)(C)NS(=O)(=O)c1cccc(NC(=O)c2ccc(NCCCO)nc2N2CCC3(CC2)CC3)c1 [Example 102-30, N-(3-(N-(tert-butyl)sulfamoyl)phenyl)-6-((3-hydroxypropyl)amino)-2-(6-azaspiro[2.5]octan-6-yl)nicotinamide]	81
CC(C)(C)NS(=O)(=O)c1cccc(NC(=O)c2ccc(NCc3ccccc3)nc2N2CCC3(CC2)CC3)c1 [Example 102-31, 6-(benzylamino)-N-(3-(N-(tert-butyl)sulfamoyl)phenyl)-2-(6-azaspiro[2.5]octan-6-yl)nicotinamide]	317
CC(C)(O)CNc1ccc(C(=O)Nc2cccc(S(=O)(=O)C3CCCC3)c2)c(N2CCC3(CC2)CC3)n1 [Example 103, N-(3-(Cyclopentylsulfonyl)phenyl)-6-((2-hydroxy-2-methylpropyl)amino)-2-(6-azaspiro[2.5]octan-6-yl)nicotinamide]	58
COCCNc1ccc(C(=O)Nc2cccc(S(=O)(=O)C3CCCC3)c2)c(N2CCC3(CC2)CC3)n1 [Example 103-1, N-(3-(cyclopentylsulfonyl)phenyl)-6-((2-methoxyethyl)amino)-2-(6-azaspiro[2.5]octan-6-yl)nicotinamide]	60
O=C(Nc1cccc(S(=O)(=O)C2CCCC2)c1)c1ccc(NCCCO)nc1N1CCC2(CC1)CC2 [Example 103-2, N-(3-(cyclopentylsulfonyl)phenyl)-6-((3-hydroxypropyl)amino)-2-(6-azaspiro[2.5]octan-6-yl)nicotinamide]	47
CC(C)(C)Nc1ccc(C(=O)Nc2cccc(S(=O)(=O)C3CCCC3)c2)c(N2CCC3(CC2)CC3)n1 [Example 103-3, 6-(tert-butylamino)-N-(3-(cyclopentylsulfonyl)phenyl)-2-(6-azaspiro[2.5]octan-6-yl)nicotinamide]	90
O=C(Nc1cccc(S(=O)(=O)C2CCCC2)c1)c1ccc(NC2(CO)CC2)nc1N1CCC2(CC1)CC2 [Example 103-4, N-(3-(cyclopentylsulfonyl)phenyl)-6-((1-(hydroxymethyl)cyclopropyl)amino)-2-(6-azaspiro[2.5]octan-6-yl)nicotinamide]	39
O=C(Nc1cccc(S(=O)(=O)C2CCCC2)c1)c1ccc(NC2(CO)CCC2)nc1N1CCC2(CC1)CC2 [Example 103-5, N-(3-(cyclopentylsulfonyl)phenyl)-6-((1-(hydroxymethyl)cyclobutyl)amino)-2-(6-azaspiro[2.5]octan-6-yl)nicotinamide]	54
O=C(Nc1cccc(S(=O)(=O)C2CCCC2)c1)c1ccc(NC2(CO)COC2)nc1N1CCC2(CC1)CC2 [Example 103-6, N-(3-(cyclopentylsulfonyl)phenyl)-6-((3-(hydroxymethyl)oxetan-3-yl)amino)-2-(6-azaspiro[2.5]octan-6-yl)nicotinamide]	39
CC(C)(CCO)Nc1ccc(C(=O)Nc2cccc(S(=O)(=O)C3CCCC3)c2)c(N2CCC3(CC2)CC3)n1 [Example 103-7, N-(3-(cyclopentylsulfonyl)phenyl)-6-((4-hydroxy-2-methylbutan-2-yl)amino)-2-(6-azaspiro[2.5]octan-6-yl)nicotinamide]	47
O=C(Nc1cccc(S(=O)(=O)C2CCCC2)c1)c1ccc(NCC2(O)CC2)nc1N1CCC2(CC1)CC2 [Example 103-8, N-(3-(cyclopentylsulfonyl)phenyl)-6-(((1-hydroxycyclopropyl)methyl)amino)-2-(6-azaspiro[2.5]octan-6-yl)nicotinamide]	42
C[C@@H](CO)Nc1ccc(C(=O)Nc2cccc(S(=O)(=O)C3CCCC3)c2)c(N2CCC3(CC2)CC3)n1 [Example 103-9, (S)-N-(3-(cyclopentylsulfonyl)phenyl)-6-((1-hydroxypropan-2-yl)amino)-2-(6-azaspiro[2.5]octan-6-yl)nicotinamide]	42
C[C@H](CO)Nc1ccc(C(=O)Nc2cccc(S(=O)(=O)C3CCCC3)c2)c(N2CCC3(CC2)CC3)n1 [Example 103-10, (R)-N-(3-(cyclopentylsulfonyl)phenyl)-6-((1-hydroxypropan-2-yl)amino)-2-(6-azaspiro[2.5]octan-6-yl)nicotinamide]	42
C[C@@H](O)CNc1ccc(C(=O)Nc2cccc(S(=O)(=O)C3CCCC3)c2)c(N2CCC3(CC2)CC3)n1 [Example 103-11, (R)-N-(3-(cyclopentylsulfonyl)phenyl)-6-((2-hydroxypropyl)amino)-2-(6-azaspiro[2.5]octan-6-yl)nicotinamide]	76
C[C@H](O)CNc1ccc(C(=O)Nc2cccc(S(=O)(=O)C3CCCC3)c2)c(N2CCC3(CC2)CC3)n1 [Example 103-12, (S)-N-(3-(cyclopentylsulfonyl)phenyl)-6-((2-hydroxypropyl)amino)-2-(6-azaspiro[2.5]octan-6-yl)nicotinamide]	65
O=C(Nc1cccc(S(=O)(=O)C2CCCC2)c1)c1ccc(NC2COC2)nc1N1CCC2(CC1)CC2 [Example 103-13, N-(3-(cyclopentylsulfonyl)phenyl)-6-(oxctan-3-ylamino)-2-(6-azaspiro[2.5]octan-6-yl)nicotinamide]	43
O=C(Nc1cccc(S(=O)(=O)C2CCCC2)c1)c1ccc(N[C@@H]2CC[C@H]2O)nc1N1CCC2(CC1)CC2 [Example 103-14, N-(3-(cyclopentylsulfonyl)phenyl)-6-(((1R,2R)-2-hydroxycyclobutyl)amino)-2-(6-azaspiro[2.5]octan-6-yl)nicotinamide]	161
O=C(Nc1cccc(S(=O)(=O)C2CCCC2)c1)c1ccc(N[C@@H]2CCOC2)nc1N1CCC2(CC1)CC2 [Example 103-15, (R)-N-(3-(cyclopentylsulfonyl)phenyl)-2-(6-azaspiro[2.5]octan-6-yl)-6-((tetrahydrofuran-3-yl)amino)nicotinamide]	51
O=C(Nc1cccc(S(=O)(=O)C2CCCC2)c1)c1ccc(N[C@H]2CCOC2)nc1N1CCC2(CC1)CC2 [Example 103-16, (S)-N-(3-(cyclopentylsulfonyl)phenyl)-2-(6-azaspiro[2.5]octan-6-yl)-6-((tetrahydrofuran-3-yl)amino)nicotinamide]	115
